# Test results from patent publication US4987125A, “Antithrombotic activity of the triterpenoids of ilex pubescens and the conversion method of the triterpenoids of ilex pubescens having no antithrombotic activity into the triterpenoids having antithrombotic activity” (Cheil Sugar & Co., Ltd., priority 1988, dated 1991).
# “Also recorded” adds a separate entry of the source.
# What was measured:
# [1] = tested on: Malondialdehyde (MDA) produced by platelet; assay: Inhibition of malondialdehyde (MDA) generation by thrombin-stimulated platelets (TBA method); assay type: cell-based, rats (Male Sprague-Dawley); conditions: rat platelet
# Experimental: A platelet is agglutinated by the stimulus on thrombin. TXA2 is released by this stimulation, and it accelerated the agglutination of the platelet. And the malondialdehyde(MDA) is released with TXA2 . It is conducted whether the extract of the Ilex pubescens inhibits the production of MDA (Determination of Melondialdehyde) or not by the colorimetry method. As the extraction solvent, methanol, butanol and water are used. […] Their structures are as follows:
# Male Sprague-Dawley rats, weightin 180-200 g, were used in experiment. Blood was collected by the same method with (test 1-2). 100 sample was let stand for 20 minutes, in polypropylene tube. It was centrifuged (1400 r.p.m. for 20 minutes) at 10° C. to obtain platelet rich plasma (PRP). PRP was recentrifuged (2800 r.m.p., for 20 minutes) at 10° C. to obtain precipitated platelet pellet. Platelet was suspended in 0.01 M of pH 7.4 phosphate buffer (1×10^9 cell/ml). To the platelet suspension, 100 µl of methanol extracts of Ilex pubescens was added and the reaction mixture was preincubated in thermostat of 37° C. for 20 minutes. 50 µl of thrombin (10 U) was then added to agglutinate the platelet, and thiobarbituric acid (TBA) was added as the couple. This reaction mixture was extracted by 2 ml of n-butanol and the n-butanol phase was separated by centrifugation (1200 r.p.m. for 10 minutes) at 30° C. The absorbance of n-butanol phase was observed by UV-spectrophotometer at 534 nm.
# 1 kg of root of Ilex pubescens was powdered and the powder of Ilex pubescens was extracted 4 times with each 500 ml of 70% methanol by heating in water bath. […] 12 g of methanol extract was suspended in the small amount of water and extracted with butanol several times. […] 12 g of methanol extract of Ilex pubescens, 4.1 g of butanol fraction and 6 g of water fraction were dissolved to 20 ml of methanol solutions, respectively. 1m1 of each solution was taken in test tube and methanol was removed under nitrogen atmosphere. Residue was suspended in 1m1 of 0.01 M phosphate buffer. 0.1 ml of suspension was used as sample.
# *1 ml of washed platelet (1 × 10^9 cells/ml) of rats was
# preincubated (37° C. for 30 minutes) with 0.1 ml of sample in 0.01
# M phosphate buffer (pH 7.4, in normal saline). Then, to the agglutinated
# platelet, 50 μl of bovine thrombin (10 U) was added.
# **MDA was determined by the method of TBA. Each value is the mean of 2
# Therefore, 4.1 g of butanol fraction was dissolved in 10 ml of methanol and chromatographed on Sephadex LH-20 column (Sigma Co., 3.8×66 cm) with methanol as eluant. After the first eluate (260 ml) corresponding to the void volume of the column was eluted, the eluate was collected in test tubes at the volume of 21ml. 12 fractions were obtained.
# Each fraction was dissolved in 10 ml of methanol and 0.5 ml of methanol solution was taken. The solvent was evaporated under nitrogen atmosphere. The residue was suspended in 1m1 of 0.01 M phosphate buffer and 0.1m1 was used as sample. Inhibition of MDA generation was measured by the same method with Test 2-1).
# *4.1 g of butanol extract was chromatographed on Sephadex LH20 column (3,
# × 66 cm) with methanol as eluant.
# **Each fraction was dissolved in 10 ml of methanol and 0.5 ml of solution
# thromboxane synthase = conditions: known property; cited from earlier work
molecule,measurement,setting,value
C[C@H]1CC[C@]2(C(=O)O)CC[C@]3(C)C(=CC[C@@H]4[C@@]5(C)CC[C@H](O[C@@H]6OC[C@@H](O)[C@H](O)[C@H]6O[C@@H]6O[C@H](CO)[C@@H](O)[C@H](O)[C@H]6O)C(C)(C)[C@@H]5CC[C@]43C)[C@@H]2[C@]1(C)O [Ilexoside D],"inhibition of MDA generation, result in words",[1],exhibited the greatest antithrombic activity
same,"inhibition of MDA generation, result in words",[1]; listed as ilexoside D,effective; also recorded: inhibits MDA production
C[C@H]1CC[C@]2(C(=O)O[C@@H]3O[C@H](CO)[C@@H](O)[C@H](O)[C@H]3O)CC[C@]3(C)C(=CC[C@@H]4[C@@]5(C)CC[C@H](O[C@@H]6OC[C@@H](O)[C@H](O)[C@H]6O[C@@H]6O[C@H](CO)[C@@H](O)[C@H](O)[C@H]6O)C(C)(C)[C@@H]5CC[C@]43C)[C@@H]2[C@]1(C)O [Ilexoside K],"inhibition of MDA generation, result in words",[1],had no effect; also recorded: ineffective
C[C@@H]1O[C@@H](O[C@H]2[C@H](O[C@H]3[C@H](O[C@H]4CC[C@]5(C)[C@H]6CC=C7[C@H]8[C@](C(=O)O[C@@H]9O[C@H](CO)[C@@H](O)[C@H](O)[C@H]9O)(CC[C@H](C)[C@@]8(C)O)CC[C@@]7(C)[C@]6(C)CC[C@H]5C4(C)C)OC[C@@H](O)[C@@H]3O)O[C@H](CO)[C@@H](O)[C@@H]2O)[C@H](O)[C@H](O)[C@H]1O [Ilexoside O],"inhibition of MDA generation, result in words",[1],exhibited no effect
same,"inhibition of MDA generation, result in words",[1]; listed as ilexoside O,ineffective
c1c[nH]cn1 [Imidazole],"inhibition of thromboxane synthase, in words",thromboxane synthase,known as the inhibitor of thromboxane synthase
CC1CCC2(C(=O)O)CCC3(C)C(=CCC4C5(C)CCC(O)C(C)(C(=O)O)C5CCC43C)C2C1(C)O (stereo not drawn) [Pubescenic acid],IC50 (concentration inhibiting 50% of MDA generation),"[1]; isolated components, imidazole as control",0.41 mg
same,"inhibition of MDA generation, result in words",[1],inhibits MDA production
Prosapogenin A,"inhibition of MDA generation, result in words",[1],did not inhibit MDA generation
